Experimental data taken from ChEMBL document CHEMBL1201862, “PubChem BioAssay data set” (2004).
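Growth conditions: 96-well plates. Treatment: test compound, 48 hours, 5 concentrations. Analysis: linear interpolation between bracketing concentrations; unreached endpoints set to highest concentration. The concentration for 50% growth inhibition is given as GI50.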 Calls of active or inactive are those of the source. Cut-off read from the data, not from the text of the source: active = GI50 up to about 1.1 µM and inactive = higher.

Key:
Experiment in all cases: DTP human tumour cell line panel, 48 h
DLD-1 = test system: DLD-1
KM12 = test system: KM12
UACC-257 = test system: UACC-257
A549 = test system: A549
SR = test system: SR
HL-60 = test system: HL-60
EKVX = test system: EKVX
CCRF-CEM = test system: CCRF-CEM
U-251 = test system: U-251
DMS-273 = test system: DMS-273
RXF 393 = test system: RXF 393
NCI-H23 = test system: NCI-H23
NCI-H226 = test system: NCI-H226
HOP-92 = test system: HOP-92
LXFL 529 = test system: LXFL 529
SNB-19 = test system: SNB-19
COLO 205 = test system: COLO 205
SK-OV-3 = test system: SK-OV-3
MOLT-4 = test system: MOLT-4
SK-MEL-28 = test system: SK-MEL-28
UACC-62 = test system: UACC-62
TK-10 = test system: TK-10
OVCAR-5 = test system: OVCAR-5
OVCAR-3 = test system: OVCAR-3
ACHN = test system: ACHN
A498 = test system: A498
UO-31 = test system: UO-31
OVCAR-4 = test system: OVCAR-4
HOP-62 = test system: HOP-62
SF-295 = test system: SF-295
M14 = test system: M14
XF498 = test system: XF498
Malme-3M = test system: Malme-3M
SK-MEL-5 = test system: SK-MEL-5
SNB-78 = test system: SNB-78
SNB-75 = test system: SNB-75
M19-MEL = test system: M19-MEL
K562 = test system: K562
LOX IMVI = test system: LOX IMVI
OVCAR-8 = test system: OVCAR-8
RPMI-8226 = test system: RPMI-8226
SF-268 = test system: SF-268
DMS-114 = test system: DMS-114
IGROV-1 = test system: IGROV-1
HCC 2998 = test system: HCC 2998
NCI-H522 = test system: NCI-H522
SK-MEL-2 = test system: SK-MEL-2
HCT-15 = test system: HCT-15
HT-29 = test system: HT-29
SF-539 = test system: SF-539
786-0 = test system: 786-0
SN12C = test system: SN12C
NCI-H460 = test system: NCI-H460
SW-620 = test system: SW-620
HCT-116 = test system: HCT-116
CAKI-1 = test system: CAKI-1
KM-20L2 = test system: KM-20L2
HOP-18 = test system: HOP-18

`CCOC(=O)c1oc2ccc(OC)c3c2c1CCC3` was tested, and the GI50 (DLD-1) was 64.9 µM (inactive), the GI50 (KM12) was > 100 µM (inactive) and the GI50 (UACC-257) was 13.7 µM (inactive). For the same molecule, the GI50 (A549) was > 100 µM (inactive), the GI50 (SR) was 37.9 µM (inactive) and the GI50 (HL-60) was > 100 µM (inactive). The GI50 (EKVX) was > 100 µM (inactive), the GI50 (CCRF-CEM) was 46.7 µM (inactive) and the GI50 (U-251) was > 100 µM (inactive). The GI50 (DMS-273) was > 100 µM (inactive), the GI50 (RXF 393) was 70 µM (inactive) and the GI50 (NCI-H23) was 59.6 µM (inactive). The GI50 (NCI-H226) was > 100 µM (inactive), the GI50 (HOP-92) was 41.6 µM (inactive) and the GI50 (LXFL 529) was 65.6 µM (inactive). For the same molecule, the GI50 (SNB-19) was > 100 µM (inactive), the GI50 (COLO 205) was > 100 µM (inactive) and the GI50 (SK-OV-3) was > 100 µM (inactive). For the same molecule, the GI50 (MOLT-4) was 26.1 µM (inactive), the GI50 (SK-MEL-28) was > 100 µM (inactive) and the GI50 (UACC-62) was > 100 µM (inactive). The GI50 (TK-10) was 83.8 µM (inactive), the GI50 (OVCAR-5) was 44.7 µM (inactive) and the GI50 (OVCAR-3) was > 100 µM (inactive). The GI50 (ACHN) was > 100 µM (inactive), the GI50 (A498) was > 100 µM (inactive) and the GI50 (UO-31) was 32.1 µM (inactive). For the same molecule, the GI50 (OVCAR-4) was 51.6 µM (inactive), the GI50 (HOP-62) was > 100 µM (inactive) and the GI50 (SF-295) was > 100 µM (inactive). For the same molecule, the GI50 (M14) was > 100 µM (inactive), the GI50 (XF498) was > 100 µM (inactive) and the GI50 (Malme-3M) was > 100 µM (inactive). For the same molecule, the GI50 (SK-MEL-5) was 84.7 µM (inactive), the GI50 (SNB-78) was > 100 µM (inactive) and the GI50 (SNB-75) was > 100 µM (inactive). The GI50 (M19-MEL) was > 100 µM (inactive), the GI50 (K562) was 55 µM (inactive) and the GI50 (LOX IMVI) was > 100 µM (inactive). The GI50 (OVCAR-8) was > 100 µM (inactive), the GI50 (RPMI-8226) was > 100 µM (inactive) and the GI50 (SF-268) was > 100 µM (inactive). For the same molecule, the GI50 (DMS-114) was > 100 µM (inactive), the GI50 (IGROV-1) was > 100 µM (inactive) and the GI50 (HCC 2998) was > 100 µM (inactive). For the same molecule, the GI50 (NCI-H522) was 67.3 µM (inactive), the GI50 (SK-MEL-2) was > 100 µM (inactive) and the GI50 (HCT-15) was > 100 µM. For the same molecule, the GI50 (HT-29) was > 10 µM (inactive), the GI50 (SF-539) was > 100 µM (inactive) and the GI50 (786-0) was > 100 µM (inactive). The GI50 (SN12C) was > 100 µM (inactive), the GI50 (NCI-H460) was > 100 µM (inactive) and the GI50 (SW-620) was > 100 µM (inactive).
`CCOC(=O)N1CCN(P(=O)(Nc2ccc3[nH]c(NC(=O)OC)nc3c2)Oc2ccccc2)CC1` (centres undefined) was tested, and the GI50 (DLD-1) was > 100 µM (inactive), the GI50 (KM12) was > 100 µM (inactive) and the GI50 (UACC-257) was > 100 µM (inactive). The GI50 (A549) was > 100 µM (inactive), the GI50 (HL-60) was > 100 µM (inactive) and the GI50 (HCT-116) was > 100 µM (inactive). The GI50 (CCRF-CEM) was 86.1 µM (inactive), the GI50 (U-251) was > 100 µM (inactive) and the GI50 (DMS-273) was > 100 µM (inactive). For the same molecule, the GI50 (RXF 393) was > 100 µM (inactive), the GI50 (NCI-H23) was > 100 µM (inactive) and the GI50 (NCI-H226) was > 100 µM (inactive). The GI50 (HOP-92) was > 100 µM (inactive), the GI50 (LXFL 529) was > 100 µM (inactive) and the GI50 (COLO 205) was > 100 µM (inactive). The GI50 (SK-OV-3) was > 100 µM (inactive), the GI50 (MOLT-4) was > 100 µM (inactive) and the GI50 (SK-MEL-28) was > 100 µM (inactive). The GI50 (CAKI-1) was > 100 µM (inactive), the GI50 (UACC-62) was 51.1 µM (inactive) and the GI50 (TK-10) was > 100 µM (inactive). The GI50 (OVCAR-5) was > 100 µM (inactive), the GI50 (OVCAR-3) was 50.7 µM (inactive) and the GI50 (ACHN) was > 100 µM (inactive). For the same molecule, the GI50 (KM-20L2) was > 100 µM (inactive), the GI50 (A498) was > 100 µM (inactive) and the GI50 (UO-31) was > 100 µM (inactive). The GI50 (OVCAR-4) was > 100 µM (inactive), the GI50 (M14) was > 100 µM (inactive) and the GI50 (Malme-3M) was 31.6 µM (inactive). For the same molecule, the GI50 (SNB-78) was > 100 µM (inactive), the GI50 (SNB-75) was 77.6 µM (inactive) and the GI50 (M19-MEL) was > 100 µM (inactive). The GI50 (K562) was 35 µM (inactive), the GI50 (LOX IMVI) was > 100 µM (inactive) and the GI50 (OVCAR-8) was > 100 µM (inactive). For the same molecule, the GI50 (RPMI-8226) was 81.8 µM (inactive), the GI50 (SF-268) was > 100 µM (inactive) and the GI50 (DMS-114) was > 100 µM (inactive). The GI50 (IGROV-1) was > 100 µM (inactive), the GI50 (HCC 2998) was > 100 µM (inactive) and the GI50 (NCI-H522) was 37.5 µM (inactive). The GI50 (SK-MEL-2) was > 100 µM (inactive), the GI50 (HCT-15) was > 100 µM and the GI50 (HT-29) was > 100 µM (inactive). For the same molecule, the GI50 (786-0) was > 100 µM (inactive), the GI50 (SN12C) was > 100 µM (inactive) and the GI50 (NCI-H460) was > 100 µM (inactive). The GI50 (HOP-18) was 87.9 µM (inactive) and the GI50 (SW-620) was > 100 µM (inactive).
